pIC50: −log10 of the molar value.
Legend:
[1] = test system: RKOp27 colon adenocarcinoma cells arrested by expression of ectopic p27Kip1; assay: Alamar Blue cell viability assay on RKO p27 cells arrested by Ponasterone A induced p27Kip1 (cell cycle specific mode of action); format: cell-based; conditions: Homo sapiens, 72 hours, cells arrested by p27Kip1 induced with 10 μM Ponasterone A
Outline: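 RKOp27 cells, 16000 per well in DMEM/10% FCS, arrested by p27Kip1 induced with 10 μM Ponasterone A, then dosed 24 h later and incubated 72 h at 37° C, quadruplicates. Alamar Blue fluorescence (544/590 nm) gave viability as % of untreated cells, set against proliferating cells grown without inducer.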

[2] = test system: RKO (RKOp27) human colon adenocarcinoma cells; assay: Alamar Blue cell viability assay, anti-proliferative/cytotoxic activity on proliferating (uninduced) RKO p27 cells; format: cell-based; conditions: RKOp27, 72 h, proliferating cells without inducer Ponasterone A
Outline: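 RKOp27 subclones (4000 cells/well) were seeded 24 h before treatment with semi-log compound dilutions in DMEM/10% FCS, in quadruplicate, for 72 h at 37° C. Alamar Blue fluorescence (544 nm excitation/590 nm emission) was normalised to untreated cells (100%), and IC50 values were taken from concentration-effect curves.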

Compound | pIC50 [1] | pIC50 [2]
COc1cccc(CCC(=O)Nc2sc3c(c2C#N)CCN(C(=O)OCc2nccn2C)C3)c1 [Example 119, 3-Cyano-2-[3-(3-methoxy-phenyl)-propanoylamino]-4,7-dihydro-5H-thieno[2,3-c]pyridine-6-carboxylic acid 1-methyl-1H-imidazol-2-ylmethyl ester] | < 4.00 | ≥ 6.52
COc1ccccc1CCC(=O)Nc1sc2c(c1C#N)CCN(C(=O)OCc1nccn1C)C2 [Example 122, 3-Cyano-2-[3-(2-methoxy-phenyl)-propanoylamino]-4,7-dihydro-5H-thieno[2,3-c]pyridine-6-carboxylic acid 1-methyl-1H-imidazol-2-ylmethyl ester] | ≤ 5.00 | ≥ 6.52
COc1ccccc1CCC(=O)Nc1sc2c(c1C#N)CCN(C(=O)OCc1cncn1C)C2 [Example 123, 3-Cyano-2-[3-(2-methoxy-phenyl)-propanoylamino]-4,7-dihydro-5H-thieno[2,3-c]pyridine-6-carboxylic acid 3-methyl-3H-imidazol-4-ylmethyl ester] | < 4.00 | ≥ 6.52
COc1ccccc1CCC(=O)Nc1sc2c(c1C#N)CCN(C(=O)OCCn1ccnc1C)C2 [Example 124, 3-Cyano-2-[3-(2-methoxy-phenyl)-propanoylamino]-4,7-dihydro-5H-thieno[2,3-c]pyridine-6-carboxylic acid 2-(2-methyl-imidazol-1-yl)-ethyl ester] | ≤ 5.00 | ≥ 6.52
COc1ccc(C)cc1CCC(=O)Nc1sc2c(c1C#N)CCN(C(=O)OCc1cncn1C)C2 [Example 130, 3-Cyano-2-[3-(2-methoxy-5-methyl-phenyl)-propanoylamino]-4,7-dihydro-5H-thieno[2,3-c]pyridine-6-carboxylic acid 3-methyl-3H-imidazol-4-ylmethyl ester] | ≤ 5.00 | 5.70 to 6.52
COc1ccc(C)cc1CCC(=O)Nc1sc2c(c1C#N)CCN(C(=O)OCCn1ccnc1C)C2 [Example 131, 3-Cyano-2-[3-(2-methoxy-5-methyl-phenyl)-propanoylamino]-4,7-dihydro-5H-thieno[2,3-c]pyridine-6-carboxylic acid 2-(2-methyl-imidazol-1-yl)-ethyl ester] | ≤ 4.40 | ≥ 6.52
COc1ccc(C)cc1CCC(=O)Nc1sc2c(c1C#N)CCN(C(=O)OCCn1ccnc1)C2 [Example 132, 3-Cyano-2-[3-(2-methoxy-5-methyl-phenyl)-propanoylamino]-4,7-dihydro-5H-thieno[2,3-c]pyridine-6-carboxylic acid 2-imidazol-1-yl-ethyl ester] | ≤ 4.40 | ≥ 6.52
COc1cccc(CCC(=O)Nc2sc3c(c2C#N)CCN(C(=O)OCCn2cnc(C)c2)C3)c1 [Example 142, 3-Cyano-2-[3-(3-methoxy-phenyl)-propanoylamino]-4,7-dihydro-5H-thieno[2,3-c]pyridine-6-carboxylic acid 2-(4-methyl-imidazol-1-yl)-ethyl ester] | < 4.00 | ≥ 6.52
COc1ccccc1CCC(=O)Nc1sc2c(c1C#N)CCN(C(=O)OCC(=O)O)C2 [Example 153, 3-Cyano-2-[3-(2-methoxy-phenyl)-propanoylamino]-4,7-dihydro-5H-thieno[2,3-c]pyridine-6-carboxylic acid carboxymethyl ester] | < 4.00 | 5.70 to 6.52
COc1ccc(C)cc1CCC(=O)Nc1sc2c(c1C#N)CCN(C(=O)OCC(=O)O)C2 [Example 155, 3-Cyano-2-[3-(2-methoxy-5-methyl-phenyl)-propanoylamino]-4,7-dihydro-5H-thieno[2,3-c]pyridine-6-carboxylic acid carboxymethyl ester] | < 4.00 | 5.70 to 6.52
CCOc1ccccc1CCC(=O)Nc1sc2c(c1C#N)CCN(C(=O)OCC(=O)OC)C2 [Example 190, 3-Cyano-2-[3-(2-ethoxy-phenyl)-propanoylamino]-4,7-dihydro-5H-thieno[2,3-c]pyridine-6-carboxylic acid methoxycarbonylmethyl ester] | < 4.00 | ≥ 6.52
